Results reported in US20160375006A1, “USES OF PARALOG-SELECTIVE INHIBITORS OF GSK3 KINASES” (priority 2012, published 2016).
Values after ≈ are worked out from the molar mass of the structure shown. “Also recorded” adds a separate entry of the source. Like-named read-outs stand apart in the source and are kept apart here.

Key:
[1] = test system: amphetamine-induced hyperactivity; experiment: Amphetamine-induced hyperactivity (AIH) in mice; type: in vivo, mouse; settings: versus vehicle
[2] = Pharmacokinetics and brain distribution in male C57BL/6 mice; settings: single i.p. dose 30 mg/kg (CHIR99021 12.5 mg/kg)
AML cell lines = experiment: May-Grunwald Giemsa morphology of AML cell lines; type: cell-based; settings: three days after treatment
Description: On day three post-chemical treatment, cytospin preparations were performed. Changes in cellular morphology were evaluated by May-Grunwald Giemsa staining (Sigma Aldrich). Images were acquired by light microscopy at 400× magnification.

HL-60 and U937 cells = experiment: GE-HTS 32-gene myeloid differentiation signature; type: cell-based; settings: three days
Description: This assay uses ligation-mediated amplification with a fluorescent bead-based detection system to quantify the expression of up to 500 genes in a single well. Two primary scoring methods are used to quantify induction of the 32-gene myeloid differentiation signature. The Summed Score combines expression ratios (marker gene/control gene) by summing them with a sign determined by the expected direction of regulation from ATRA-treated positive controls. The Weighted Summed Score combines expression ratios by summing them with a weight and sign determined by the signal-to-noise ratio of each expression ratio for the positive control (ATRA-treated) and negative control (DMSO-treated) samples. To assess the statistical significance of the differences between these differentiation scores a one-way ANOVA with a Bonferroni correction as a post-hoc test was employed.

GSK3β [3] = molecular target: T1, GSK3β (Homo sapiens, UniProt P49841); settings: GSK3β over GSK3α
Description: (§2) Reactions were terminated by the addition of 10 mM EDTA. Substrate and product were separated electrophoretically and fluorescence intensity of the substrate and product was determined by Labchip EZ Reader II (Caliper Life Sciences, MA). The kinase activity was measured as percent conversion. The reactions were performed in duplicate for each sample. […] The results were analyzed by Genedata Assay Analyzer. The percent inhibition was plotted against the compound concentration and the IC50 value was determined from the logistic dose-response curve fitting.

GSK3β [4] = molecular target: T1, GSK3β; experiment: biochemical
Description: 100 nL/well compounds were pinned. […] Incubated at room temperature for 60 minutes. Added 20 μL/well of ADP-glo (Promega, V9103) with Combi, and incubated at room temperature for 40 minutes. Added 40 μL/well of ADP-glo (Promega, V9103) with Combi, incubated at room temperature for 30 minutes. Read on Envision for luminescence.

GSK3α [5] = molecular target: T2, GSK3α (Homo sapiens, UniProt P49840); settings: for IC50: read-out: Caliper Assay, GSK3α IC50; for GSK3α fold selectivity: GSK3α over GSK3β
Description: as §2

TCF/LEF reporter = experiment: cells; settings: Homo sapiens, HEK293, read-out: TCF/LEF EC50, HEK293 cells
Description: HEK293-pBARL cells were derived from HEK293 cells and they stably expressed a firefly-luciferase reporter gene driven by a promoter containing 12 copies of TCF/LEF binding sequences. These cells were maintained in DMEM and supplemented with 10% FBS and 1% penicillin-streptomycin (Invitrogen). Reporter gene assays were conducted in anti-biotic free media. […] These cells also contained a renilla-luciferase reporter gene driven by the ubiquitous EF1α promoter as a control. HEK293-pBarl reporter cell lines were seeded into 384-well culture plates (Corning) at 6000 cells/well. 24 hours after plating, cells were treated overnight with relevant compounds and assayed using DualGlo assay kit (Promega). Luminescent intensities were read by EnVision (PerkinElmer, Waltham, Mass.). Firefly luciferase intensity is normalized by renilla luciferase intensity.
Cells were cultured in 384 well plates to appropriate density (40 μl total plating volume). 24 hours after plating, cells were treated with 100 nl compounds. 24 hours after incubation with compounds (48 hours after plating), assay reagents were prepared by mixing Luciferase Assay solution with Luciferase substrate and Stop & Glo solution to Stop & Glo substrate (extra reagents can be aliquoted and frozen for future use and are stable for at least one freeze/thaw cycle). […] The plate was spun down and 10 minutes were allowed for signal stabilization. Luciferase signal on the Perkin Elmer EnVision using the following parameters: Distance between plate & detector (mm)=0.2; Measurement time(s)=0.1; Glow (CT2) correction factor=0. Once the initial data is secure, a volume of Stop & Glo was added equal to each well equal to the volume of Luciferase reagent added above (If 10 μl Luciferase Reagent was added, 10 μl Stop & Glo was also added). The plate was spun down and 10 minutes were allowed for signal stabilization. The plate was read on the EnVision using the same parameters detailed above.

phospho-Tau (Ser199) = experiment: Tau phosphorylation (Ser199) ELISA in SH-SY5Y cells; type: cell-based; settings: Homo sapiens, read-out: p-Tau Inhibition ELISA EC50 SH-SY5Y
Description: SH-SY5Y cells were maintained in DMEM supplemented with 10% heat-inactivated FBS and 1% penicillin-streptomycin (Invitrogen) unless otherwise stated. ELISA kits for phospho-Tau (Ser199) and total Tau detection were purchased from Invitrogen (KHB0041, and KHB7041 respectively). Briefly, SH-SY5Y cells were seeded at 50,000 cells/200 μL/well in 96 well plates and after overnight incubation, treated with various doses of chemical compounds at 0.2 μL/well. The next day cells were washed with PBS twice before being lysed in 100 μL Lysis buffer/well. 50 μL of cell lysate of each sample was transferred to an ELISA vial coated with the capture antibody, and the mixture was incubated at room temperature for 2 hours, before the supernatant was aspired, and each vial washed four times. 100 μL of detection antibody was then added to each well, incubated for 1 hour, and then washed four times. […] Data were scaled using the positive and neutral controls and fitted for IC50.
A standard protocol using an immunoassay kit to quantify total Tau protein and phospho-Tau (Ser199) protein in SH-SY5Y human neuroblastoma cells was employed. Human Tau (Total) ELISA kit (#KHB0041) and human phosphor-Tau (Ser199) ELISA kit were purchased from Invitrogen (#KHB7041)
50,000 cells were seeded in 200 μl per well in cell culture media (250,000 cells/ml). Cells were incubated overnight @ 37° C. Cells were induced with appropriate doses of inhibitors and incubated for approximately 24 hrs @ 37° C. Cell lysates were harvested by washing cells once with cold PBS and adding 100 μl cold lysis buffer and pipette up and down vigorously. Lysate was transferred to 96 well PCR plate and centrifuged at 4,000 rpm for 20 minutes at 4° C.
Well strips were warmed and inserted into the frame. 100μ of standard diluent buffer were loaded into ZERO wells, and 100 ul of each standard concentrations (both total Tau and pTau) were loaded into wells in duplicate. Samples were loaded to each well that would be analyzed for total Tau, 85 μl standard diluent buffer and 15 μl cell lysate were added. To each well that will be analyzed for pTau (Ser199) 50 μl standard diluent buffer+50 μl cell lysate were added. Plates were tapped gently on the side to mix. Certain wells were left empty for chromogen blank. Plates were covered and incubated for 2 hours at room temperature. Wells were aspirated 4 times (400 μl diluted wash buffer, left for 30 seconds, aspirated all wells; alternatively used automated plate washer and programmed in a 30 second hold between each cycle). 100 μl of detection antibody solution were added to each well except chromogen blanks. Anti-total Tau was added to wells being analyzed for total Tau, anti-pTau (Ser199) was added to wells being analyzed for pTau (Ser199), and plates were tapped gently on the side to mix. Plates were covered and incubated for 1 hour at room temperature, then wells were aspirated and washed 4 times as described above. 100 μl of anti-rabbit IgG HRP working solution (prepared ahead) were added to each well except chromogen blanks, and plates were covered and incubated for 30 minutes at room temperature, then wells were aspirated and washed 4 times as described above. 100 μl of stabilized chromogen were added to each well (the liquid turned blue). Plates were incubates for 30 minutes at room temperature in the dark, then 100 μl of stop solution were added to each well, and plates were tapped gently on the side to mix. Absorbance of each well was read at 450 nm (within 2 hours of adding stop solution).

[6] = test system: β-catenin nuclear translocation; experiment: β-Catenin nuclear localization assay in U2-OS cells; type: cell-based; settings: Homo sapiens, U2OS, read-out: beta-Catenin translocation EC50
Description: U2-OS cells stably expressing two complimentary β-galactosidase fragments (one part on β-Catenin and the other constitutively expressed in the cell nucleus) were maintained in DMEM F12 supplemented with 10% FBS. When β-catenin translocates to the nucleus, the complimentary fragments form a complete β-galactosidase, the amount of which is then quantified by β-galactosidase activity (DiscoveRx). Cells were seeded in a 384-well CulturPlate (Perkin Elmer, Boston, Mass.) with 10,000 per well in 20 μL DMEM F12 containing 10% FCS, 100 U/ml penicillin and 100 m/mL streptomycin. After overnight incubation at 37° C., cells were stimulated with 100 nL test compound/well and then returned to the incubator for 6 h. Cells were disrupted using 12 μL substrate-containing lysis buffer from the PathHunter Detection Kit in the formulation specified by the supplier (DiscoveRx). Plates were incubated in the dark for 1 h at room temperature before measurement of β-galactosidase activity (luminescence) on an EnVision plate reader (PerkinElmer, Waltham, Mass.). Distance between plate and detector was 0.2 mm. Measurement time(s)=0.1; Glow (CT2) correction factor=0.

[7] = for Mouse microsomes, % remaining: after 1 hour; for Microsomal stability 60 min: in mice
PBS stability = type: physicochemical
Description: (§1) Stability was determined in the presence of PBS pH 7.4 with 0.1% DMSO. Each compound was prepared in duplicate on six separate plates and allowed to equilibrate at room temperature with a 250 rpm orbital shake for 48 hours. One plate was removed at each time point (0, 2, 4, 8, 24, and 48 hours). […] Additionally, to the remaining material at each time point, acetonitrile was added to force dissolution of compound (to test for recovery of compound). An aliquot of this was also analyzed by UPLC-MS.

GSH stability = type: physicochemical; settings: after 48 hours
Description: as §1, with “[…] and 50 μM glutathione” for “7.4”

GSK3β [8] = molecular target: T1, GSK3β; experiment: Mechanism of action: ATP competition at GSK3β (Lineweaver-Burk, IC50 at two ATP concentrations); type: biochemical; settings: versus ATP
Description: . IC50s were measured against GSK3β at two different ATP concentrations. […]

[9] = in mice (mouse plasma), 5 hours
GSK3β [10] = molecular target: T1, GSK3β; experiment: biochemical; remark: listed apart in the source
Description: as §2

GSK3α [11] = molecular target: T2, GSK3α; experiment: biochemical
Description: as §2

human iPSC-NPCs = experiment: Neurogenesis assay (TCF/LEF-luciferase in human iPSC-NPCs); type: cell-based; settings: 24-h treatment
Description: Human neuroprogenitor cells were generated and derived according to methods known in the art. […] Single-cell suspensions were prepared from the human iPSC-NPCs, stably integrated with the TCF/LEF-luciferase reporter, and dispensed into 96- or 384-well plates at the seeding densities of 20,000 or 6,000 per well, respectively, using a Matrix WellMate (Thermo Scientific) microplate dispenser. A 96-well plate format was used for measuring Wnt3a and lithium (lithium chloride solution, 10 M; Fluka, St. Louis, Mo.) dose-response effects, whereas a 384-well plate format was used for all small-molecule probe treatments and chemical screening. The next day, cells were subjected to various 24-h treatments. Just prior to the luminescence reading, the plates were taken out of a 37° C. incubator and equilibrated to room temperature for 30 min before the SteadyGlo reagent (Promega, Madison, Wis.) was dispensed (volume equal 1:1 SteadyGlo:culture medium). Luminescence was measured after a 10-min incubation using an EnVision multilabel plate reader (PerkinElmer, Waltham, Mass.).

in vitro = settings: mouse, plasma, pH 7.4
Description: Plasma protein binding was determined by equilibrium dialysis using the Rapid Equilibrium Dialysis (RED) device (Pierce Biotechnology, Rockford, Ill.) for both human and mouse plasma. […] Compounds were incubated at 37° C. for 5 hours with a 250 rpm orbital shake.

T2 sequence (P49840 whole entry): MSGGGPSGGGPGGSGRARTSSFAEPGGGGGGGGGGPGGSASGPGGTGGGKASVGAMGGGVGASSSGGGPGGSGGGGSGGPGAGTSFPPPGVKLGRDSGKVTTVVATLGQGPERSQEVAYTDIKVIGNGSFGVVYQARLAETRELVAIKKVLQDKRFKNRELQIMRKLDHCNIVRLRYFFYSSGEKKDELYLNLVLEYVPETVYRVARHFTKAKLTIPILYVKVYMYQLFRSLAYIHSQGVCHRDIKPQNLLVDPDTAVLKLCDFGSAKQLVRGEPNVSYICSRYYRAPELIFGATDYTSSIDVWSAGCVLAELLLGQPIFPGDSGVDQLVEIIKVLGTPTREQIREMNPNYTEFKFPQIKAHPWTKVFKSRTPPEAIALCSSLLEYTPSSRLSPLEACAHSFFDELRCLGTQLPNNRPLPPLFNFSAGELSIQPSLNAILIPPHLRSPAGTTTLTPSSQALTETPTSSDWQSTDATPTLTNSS
T1 sequence (P49841 whole entry): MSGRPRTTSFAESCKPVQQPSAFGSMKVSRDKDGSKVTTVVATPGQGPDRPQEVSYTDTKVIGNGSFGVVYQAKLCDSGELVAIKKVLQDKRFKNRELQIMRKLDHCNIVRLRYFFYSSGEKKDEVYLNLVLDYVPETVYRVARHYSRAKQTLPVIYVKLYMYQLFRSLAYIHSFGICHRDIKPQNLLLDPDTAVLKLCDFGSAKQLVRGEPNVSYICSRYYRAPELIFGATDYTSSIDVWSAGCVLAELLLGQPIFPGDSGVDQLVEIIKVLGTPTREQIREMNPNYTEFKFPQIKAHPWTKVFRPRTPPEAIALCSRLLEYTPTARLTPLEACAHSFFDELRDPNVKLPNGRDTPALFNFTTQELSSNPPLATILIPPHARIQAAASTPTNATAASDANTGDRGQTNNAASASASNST
Description for panel of 311 kinases: Briefly, a selection of compounds was screened against a panel of kinases at a single concentration of 10 μM. […] This was completed utilizing one of two assays depending on the kinase being examined.
Test compounds were dissolved in and diluted with dimethylsulfoxide (DMSO) to generate a 100× sample solution. These were then diluted to 4× sample solutions in assay buffer to make the final test compound solutions. Reference compounds for assay control were prepared similarly.
A solution of IMAP binding reagent (IMAP Screening Express kit; Molecular Devices) (60 μL) was added to each well and incubated for 30 minutes.
A solution of termination buffer (QuickScout Screening assist MSA; Carna Biosciences) (60 μL) was added to each well. The entire reaction mixture was then applied to a LabChip3000 system (Caliper Life Science) and the product and substrate peptide peaks were separated and quantified.
Description for physchem: Solubility was determined in phosphate buffered saline (PBS) pH 7.4 with 1% DMSO. Each compound was prepared in duplicate at 100 μM in both 100% DMSO and PBS with 1% DMSO. Compounds were allowed to equilibrate at room temperature with a 250 rpm orbital shake for 24 hours.

| SMILES | IC50 (GSK3β [4]) | EC50 (TCF/LEF reporter) | EC50 (phospho-Tau (Ser199)) | EC50 [6] | IC50 (GSK3β [10]) | IC50 (GSK3α [11]) | also measured |
| --- | --- | --- | --- | --- | --- | --- | --- |
| CC1(C)CC(=O)C2=C(C1)Nc1n[nH]c(C(F)(F)F)c1C2(C)c1ccccc1 (racemic) [Compound 70, 4,7,7-trimethyl-4-phenyl-3-(trifluoromethyl)-6,7,8,9-tetrahydro-2H-pyrazolo[3,4-b]quinolin-5(4H)-one] | – | – | – | – | – | – | Amphetamine-induced hyperactivity, i.p. ([1]; systemic intraperitoneal injection): attenuate amphetamine-induced hyperactivity; Pharmacokinetic profile (systemic exposure, brain distribution) compared to CHIR99021 [2]: improved pharmacokinetic profile; Morphological AML differentiation (May-Grunwald Giemsa) (AML cell lines): induces morphological evidence of AML (acute myeloid leukemia) differentiation; Morphological AML differentiation (May-Grunwald Giemsa) (AML cell lines; listed as compound 70): demonstrated cellular differentiation; AML differentiation by GE-HTS signature (HL-60 and U937 cells): induces AML (acute myeloid leukemia) differentiation by GE-HTS signature; also recorded: induced a gene expression signature in AML cell lines consistent with myeloid differentiation; GSK3β fold selectivity (GSK3β [3]): 5 fold |
| CC1(C)CC(=O)C2=C(C1)Nc1n[nH]c(C(F)(F)F)c1C2c1ccccc1F (centres unmarked) [Compound 58] | 101 to 1000 nM | > 25000 nM | – | – | – | – | IC50 (GSK3α [5]): < 100 nM |
| CC1(C)CC(=O)C2=C(C1)Nc1n[nH]c(C(F)(F)F)c1C2c1ccccc1 (centres unmarked) [Compound 52] | – | 9320 nM | 507 nM | 13100 nM | – | – | IC50 (GSK3α [5]): < 100 nM |
| COc1ccccc1[C@@H]1C2=C(CC(C)(C)CC2=O)Nc2n[nH]c(C(F)(F)F)c21 [Compound 54, (R)-4-(2-methoxyphenyl)-7,7-dimethyl-3-(trifluoromethyl)-6,7,8,9-tetrahydro-2H-pyrazolo[3,4-b]quinolin-5(4H)-one] | – | – | – | – | – | – | Microsomal Stability ([7]; M): M: 0%; recovery at 48 h (PBS stability; PBS, pH 7.4, after 48 hours of incubation, read-out: PBS stability, % still present (acetonitrile recovery)): > 95%; Concentration in PBS (0.1% DMSO) over time (PBS stability; over 48 hours, reflects kinetic solubility): about 200%; Glutathione (GSH) stability, % remaining (GSH stability): 99%; Mode of inhibition of GSK3β (GSK3β [8]): ATP-competitive inhibition; Plasma stability % remaining [9]: 99%; Percent of the kinome (311 kinases) inhibited (panel of 311 kinases): 2.6% |
| COc1ccccc1C1C2=C(CC(C)(C)CC2=O)Nc2n[nH]c(-c3ccccc3)c21 (centres unmarked) [Compound 51] | 1000 to 5000 nM | > 25000 nM | – | > 50000 nM | 101 to 1000 nM | 101 to 1000 nM | – |
| CC1(C)CC(=O)C2=C(C1)Nc1n[nH]c(C(F)(F)F)c1C2c1ccccc1C(F)(F)F (centres unmarked) [Compound 62] | – | 3930 nM | 652 nM | 4230 nM | – | – | – |
| CC1(C)CC(=O)C2=C(C1)Nc1n[nH]c(C(F)(F)F)c1C2c1cccnc1 (centres unmarked) [Compound 76] | – | 6190 nM | 2090 nM | – | < 100 nM | 101 to 1000 nM | – |
| CC1(C)CC(=O)C2=C(C1)Nc1n[nH]c(C(F)(F)F)c1C2(C)c1ccccc1F (centres unmarked) [Compound 69] | – | 20800 nM | 2410 nM | – | < 100 nM | – | GSK3α fold selectivity (GSK3α [5]): 1.7 fold; IC50 (GSK3α [5]): < 100 nM |
| Cc1[nH]nc2c1C(C1CC1)C1=C(CC(C)(C)CC1=O)N2 (centres unmarked) [Compound 43] | 1000 to 5000 nM | > 25000 nM | > 30000 nM | > 50000 nM | 1000 to 5000 nM | 1000 to 5000 nM | – |
| COc1ccccc1C1C2=C(CC(C)(C)CC2=O)Nc2n[nH]c(C(C)(C)C)c21 (centres unmarked) [Compound 50] | 101 to 1000 nM | > 25000 nM | – | > 50000 nM | 101 to 1000 nM | 1000 to 5000 nM | – |
| COc1ccccc1[C@@H]1C2=C(CC(C)(C)CC2=O)Nc2n[nH]c(C)c21 [Compound 22] | – | – | – | – | – | – | Mode of inhibition of GSK3β (GSK3β [8]): competitive inhibition; Amphetamine-induced hyperactivity, ICV ([1]; intracerebroventricular injection): attenuate amphetamine-induced hyperactivity; Neurogenesis (human iPSC-NPCs): promoted neurogenesis |
| COc1ccccc1C1C2=C(CC(C)(C)CC2=O)Nc2n[nH]c(C(F)(F)F)c21 (racemic) [racemic probe, 4-(2-methoxyphenyl)-7,7-dimethyl-3-(trifluoromethyl)-6,7,8,9-tetrahydro-2H-pyrazolo[3,4-b]quinolin-5(4H)-one] | – | – | – | – | – | – | Mouse microsomes, % remaining [7]: < 1% |
| Cc1[nH]nc2c1C(c1ccccc1)(C(F)(F)F)C1=C(CC(C)(C)CC1=O)N2 (centres unmarked) [Compound 83] | – | – | – | – | – | – | Microsomal stability 60 min [7]: 51.5; solubility (physchem): 410 µM (≈ 154 µg/mL); fraction unbound at 5 h, 5 μM (in vitro): 0.102; IC50 (GSK3α [5]): < 100 nM |
| CC1(C)CC(=O)C2=C(C1)Nc1n[nH]c(C(F)(F)F)c1C2c1cccc(F)c1C(F)(F)F (centres unmarked) [Compound 63] | – | 4830 nM | 1380 nM | 3340 nM | – | – | IC50 (GSK3α [5]): < 100 nM |
| CC1(C)CC(=O)C2=C(C1)Nc1n[nH]c(C(F)(F)F)c1C2(C)c1ccccc1 (racemic) [Compound 68] | – | – | 1580 nM | – | – | – | GSK3β fold selectivity (GSK3β [3]): 2.9 fold |
| COc1ccccc1C1C2=C(CCCC2=O)Nc2n[nH]c(C)c21 (centres unmarked) [Compound 46] | 1000 to 5000 nM | > 25000 nM | – | > 50000 nM | 101 to 1000 nM | 101 to 1000 nM | – |
| Cc1[nH]nc2c1C(C)(c1ccccc1)C1=C(CC(C)(C)CC1=O)N2 (centres unmarked) [Compound 67] | – | – | – | – | – | – | Mouse microsomes, % remaining [7]: 32%; Microsomal stability 60 min [7]: 32; GSK3α fold selectivity (GSK3α [5]): 5.2 fold |
| Cc1c[nH]c(-c2cnc(NCCNc3ccc(C#N)cn3)nc2-c2ccc(Cl)cc2Cl)n1 [CHIR99021, reference compound] | – | – | – | – | – | – | Number of kinases inhibited greater than 50% at 10 μM (panel of 311 kinases; panel of 311 kinases, 10 μM): 21 |
| CCc1[nH]nc2c1C(c1ccccc1OC)C1=C(CC(C)(C)CC1=O)N2 (centres unmarked) [Compound 48] | 101 to 1000 nM | 16200 nM | – | 24600 nM | – | – | IC50 (GSK3α [5]): < 100 nM |
| COc1ccccc1C1C2=C(CC(C)(C)CC2=O)Nc2n[nH]c(C(C)C)c21 (centres unmarked) [Compound 49] | 101 to 1000 nM | > 25000 nM | – | > 50000 nM | – | 101 to 1000 nM | – |
| Cc1[nH]nc2c1C(C)C1=C(CC(C)(C)CC1=O)N2 (centres unmarked) [Compound 42] | 1000 to 5000 nM | > 25000 nM | – | > 50000 nM | 101 to 1000 nM | 101 to 1000 nM | – |
| CC1(C)CC(=O)C2=C(C1)Nc1n[nH]c(C(F)(F)F)c1C2c1cc(F)ccc1F (centres unmarked) [Compound 60] | 101 to 1000 nM | > 25000 nM | – | – | 101 to 1000 nM | 101 to 1000 nM | – |
| COc1ccccc1C1C2=C(CCC(C)(C)C2=O)Nc2n[nH]c(C)c21 (centres unmarked) [Compound 45] | 101 to 1000 nM | > 25000 nM | – | > 50000 nM | 101 to 1000 nM | 101 to 1000 nM | – |
| CC1(C)CC(=O)C2=C(C1)Nc1n[nH]c(Br)c1C2c1ccccc1 (centres unmarked) [Compound 74] | – | 6190 nM | 2090 nM | – | < 100 nM | – | IC50 (GSK3α [5]): < 100 nM |
| COc1ccccc1C1C2=C(CC3(CCCCC3)CC2=O)Nc2n[nH]c(C)c21 (centres unmarked) [Compound 56] | 101 to 1000 nM | > 25000 nM | – | > 50000 nM | 101 to 1000 nM | 101 to 1000 nM | – |
| Cc1[nH]nc2c1C(C1CCCCC1)C1=C(CC(C)(C)CC1=O)N2 (centres unmarked) [compound 44] | – | > 25000 nM | – | > 50000 nM | – | – | – |
